In ChEMBL document CHEMBL1201862, “PubChem BioAssay data set” (2004):
Active and inactive are the calls of the source.

Assays:
Cytochrome P450 2C9 = Cytochrome P450 2C9 (Homo sapiens, UniProt P11712)
Cytochrome P450 3A4 = Cytochrome P450 3A4 (Homo sapiens, UniProt P08684);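 also: CYP3A4 tested as one member of a cytochrome P450 panel screen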
Fatty acid synthase [1] = molecular target: T1, Fatty acid synthase (Homo sapiens, UniProt P49327); experiment: inhibition of human FAS-TE enzyme activity – biochemical, endpoint fluorescence intensity, uHTS hits, dose response (AID 624327); format: functional;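 also: fluorescence from hydrolysis of an O-methyl fluorescein acyl ester substrate by the enzyme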
T1 sequence (P49327 whole entry): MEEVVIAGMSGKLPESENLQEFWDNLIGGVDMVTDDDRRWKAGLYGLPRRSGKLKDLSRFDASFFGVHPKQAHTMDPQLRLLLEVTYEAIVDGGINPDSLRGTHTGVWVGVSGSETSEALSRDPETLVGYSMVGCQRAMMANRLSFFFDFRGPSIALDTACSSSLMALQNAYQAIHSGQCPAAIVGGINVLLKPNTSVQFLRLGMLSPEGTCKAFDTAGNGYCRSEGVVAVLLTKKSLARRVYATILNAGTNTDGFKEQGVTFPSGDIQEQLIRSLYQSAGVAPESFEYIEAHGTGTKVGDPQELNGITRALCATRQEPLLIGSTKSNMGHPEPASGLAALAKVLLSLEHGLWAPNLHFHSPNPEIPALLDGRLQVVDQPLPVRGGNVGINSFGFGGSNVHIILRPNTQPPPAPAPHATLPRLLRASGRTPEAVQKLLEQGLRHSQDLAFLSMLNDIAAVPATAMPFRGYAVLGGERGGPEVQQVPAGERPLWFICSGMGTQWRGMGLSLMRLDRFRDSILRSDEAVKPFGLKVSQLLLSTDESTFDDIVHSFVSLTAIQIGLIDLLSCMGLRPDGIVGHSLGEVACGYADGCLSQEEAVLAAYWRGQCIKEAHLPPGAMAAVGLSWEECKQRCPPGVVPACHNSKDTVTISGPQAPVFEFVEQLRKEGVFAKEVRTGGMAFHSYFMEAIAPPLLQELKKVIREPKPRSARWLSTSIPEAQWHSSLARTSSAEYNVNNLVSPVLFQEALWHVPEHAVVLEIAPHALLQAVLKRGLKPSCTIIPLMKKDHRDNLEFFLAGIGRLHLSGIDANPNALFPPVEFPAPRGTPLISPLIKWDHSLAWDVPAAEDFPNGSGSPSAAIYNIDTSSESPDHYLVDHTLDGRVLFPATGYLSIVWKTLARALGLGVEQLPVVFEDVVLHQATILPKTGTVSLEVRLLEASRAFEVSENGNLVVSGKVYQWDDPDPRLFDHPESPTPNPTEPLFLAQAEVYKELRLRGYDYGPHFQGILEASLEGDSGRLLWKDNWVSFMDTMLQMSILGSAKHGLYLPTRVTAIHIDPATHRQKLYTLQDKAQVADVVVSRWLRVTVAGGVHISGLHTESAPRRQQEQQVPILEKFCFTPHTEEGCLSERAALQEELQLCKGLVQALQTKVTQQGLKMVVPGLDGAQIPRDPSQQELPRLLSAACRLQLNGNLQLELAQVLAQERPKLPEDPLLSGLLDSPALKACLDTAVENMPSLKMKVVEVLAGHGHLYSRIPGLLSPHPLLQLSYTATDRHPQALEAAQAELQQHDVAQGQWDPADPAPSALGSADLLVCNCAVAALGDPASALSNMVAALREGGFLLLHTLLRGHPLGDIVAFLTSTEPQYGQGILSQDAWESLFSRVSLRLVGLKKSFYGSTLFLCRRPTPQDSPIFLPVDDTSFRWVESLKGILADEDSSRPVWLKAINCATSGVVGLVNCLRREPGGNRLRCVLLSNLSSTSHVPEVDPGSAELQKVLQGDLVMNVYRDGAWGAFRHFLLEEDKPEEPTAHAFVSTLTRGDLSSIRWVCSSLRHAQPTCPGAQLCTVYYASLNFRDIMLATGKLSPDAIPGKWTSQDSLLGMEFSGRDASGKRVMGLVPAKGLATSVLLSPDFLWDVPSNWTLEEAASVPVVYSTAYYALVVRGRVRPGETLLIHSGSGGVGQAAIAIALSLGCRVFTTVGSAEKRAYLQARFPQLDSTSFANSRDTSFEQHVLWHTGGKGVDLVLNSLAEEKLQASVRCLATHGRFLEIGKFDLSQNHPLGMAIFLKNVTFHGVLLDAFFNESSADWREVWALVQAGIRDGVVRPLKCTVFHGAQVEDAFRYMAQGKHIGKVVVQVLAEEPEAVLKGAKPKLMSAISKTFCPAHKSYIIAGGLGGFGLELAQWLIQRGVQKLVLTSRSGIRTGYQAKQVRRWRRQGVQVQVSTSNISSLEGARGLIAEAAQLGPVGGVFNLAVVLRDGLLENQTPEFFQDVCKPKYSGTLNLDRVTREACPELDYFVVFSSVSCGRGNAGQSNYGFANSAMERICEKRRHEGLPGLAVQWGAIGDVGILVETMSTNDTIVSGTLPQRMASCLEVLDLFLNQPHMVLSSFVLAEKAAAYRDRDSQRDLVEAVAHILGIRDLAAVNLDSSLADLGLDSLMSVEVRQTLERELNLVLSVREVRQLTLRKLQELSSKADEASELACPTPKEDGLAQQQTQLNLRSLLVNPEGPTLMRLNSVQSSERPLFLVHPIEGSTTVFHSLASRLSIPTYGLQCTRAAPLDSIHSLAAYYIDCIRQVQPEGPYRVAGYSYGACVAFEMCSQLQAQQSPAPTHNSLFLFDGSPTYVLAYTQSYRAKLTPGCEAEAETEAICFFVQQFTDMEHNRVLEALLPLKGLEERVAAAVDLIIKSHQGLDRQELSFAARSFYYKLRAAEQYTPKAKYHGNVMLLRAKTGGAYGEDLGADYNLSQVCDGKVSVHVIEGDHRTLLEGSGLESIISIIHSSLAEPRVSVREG

[2] = molecular target: Induced myeloid leukemia cell differentiation protein Mcl-1 (Homo sapiens, UniProt Q07820); format: functional
Induced myeloid leukemia cell differentiation protein Mcl-1, sequence (Q07820 whole entry): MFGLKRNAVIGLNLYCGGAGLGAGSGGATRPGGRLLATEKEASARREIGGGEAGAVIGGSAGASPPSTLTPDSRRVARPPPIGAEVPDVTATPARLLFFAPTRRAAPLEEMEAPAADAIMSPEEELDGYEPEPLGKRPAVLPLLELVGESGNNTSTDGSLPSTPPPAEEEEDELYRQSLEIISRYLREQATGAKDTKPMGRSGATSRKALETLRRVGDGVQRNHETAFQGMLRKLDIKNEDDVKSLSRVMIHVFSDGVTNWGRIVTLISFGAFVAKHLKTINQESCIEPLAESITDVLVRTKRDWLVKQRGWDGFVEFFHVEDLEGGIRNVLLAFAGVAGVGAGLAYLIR

Fatty acid synthase [3] = molecular target: T1, Fatty acid synthase; experiment: inhibition of human FAS-TE enzyme activity – biochemical, kinetic fluorescence intensity, dose response (AID 624326); format: functional;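 also: rate of fluorescence rise from hydrolysis of a fluorogenic O-methyl fluorescein ester substrate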
[4] = Luminescence Cell-Based Dose Response to Identify Activators of Luciferase Translation or Activity in H4-C Neuroglioblastoma Cells. [Related pubchem assays: 1829 (Project Summary), 1814 (Primary HTS)]; format: functional
[5] = molecular target: T2, Sentrin-specific protease 8 (Homo sapiens, UniProt Q96LD8); format: functional;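 also: luminescence read-out of SENP8 inhibition, dose-response confirmation following an ultra-high-throughput screen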
T2 sequence (Q96LD8 whole entry): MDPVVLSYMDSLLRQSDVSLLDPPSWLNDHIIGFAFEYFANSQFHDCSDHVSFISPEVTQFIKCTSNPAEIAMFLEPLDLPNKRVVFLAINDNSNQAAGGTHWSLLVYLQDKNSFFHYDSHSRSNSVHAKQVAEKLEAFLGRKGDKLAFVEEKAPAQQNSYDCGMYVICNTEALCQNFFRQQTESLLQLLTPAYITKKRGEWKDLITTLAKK

Caspase-3 = molecular target: T3, Caspase-3 (Homo sapiens, UniProt P42574); format: functional;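 also: Dose-response selectivity test against caspase-3 for candidate inhibitors of sentrin-specific proteases (SENPs)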
T3 sequence (P42574 whole entry): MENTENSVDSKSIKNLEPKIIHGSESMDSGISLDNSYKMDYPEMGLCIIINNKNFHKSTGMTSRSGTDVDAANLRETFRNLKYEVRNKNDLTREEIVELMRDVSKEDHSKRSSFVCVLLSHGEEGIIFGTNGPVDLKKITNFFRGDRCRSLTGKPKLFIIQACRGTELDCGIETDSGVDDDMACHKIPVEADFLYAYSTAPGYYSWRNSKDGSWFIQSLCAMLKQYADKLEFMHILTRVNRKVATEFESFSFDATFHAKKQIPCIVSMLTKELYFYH

Streptococcus = experiment: GAS UMAA2166 growth inhibition – luminescence, BacTiterGlo, counter-screen for streptokinase expression inhibitor project, dose response (AID 1915); format: functional, organism-based;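 also: potency for reduction of bacterial viability or growth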
[6] = test system: Streptococcus sp. 'group A'; experiment: Streptococcus pyogenes SK(-)GAS viability under kanamycin – luminescence, BacTiterGlo, confirmation, counter-screen for streptokinase expression inhibitor project, dose response (AID 1900); format: functional, organism-based
[7] = Luminescence Cell-Based Dose Response to Identify Activators of 5'UTR Stem-Loop Driven Prion Protein mRNA Translation in H4-C Neuroglioblastoma Cells. [Related pubchem assays: 1829 (Project Summary), 1814 (Primary HTS)]; format: functional
[8] = Luminescence Cell-Based Dose Confirmation to Identify Activators of 5'UTR Stem-Loop Driven Alpha-Synuclein mRNA Translation in H4 Neuroglioblastoma Cells. [Related pubchem assays: 1829 (Project Summary), 1814 (Primary HTS)]; format: functional
H4 = experiment: Luminescence Cell-Based Dose Response HTS to Identify Activators of 5'UTR Stem-Loop Driven Prion Protein mRNA Translation in H4 Neuroglioblastoma Cells. [Related pubchem assays: 1829 (Project Summary), 1814 (Primary HTS)]; format: functional; conditions: Homo sapiens
[9] = molecular target: T4, Sentrin-specific protease 7 (Homo sapiens, UniProt Q9BQF6); format: functional;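 also: Luminescence-based dose-response confirmation of ultra-high-throughput screening hits, measuring inhibition of SENP7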
T4 sequence (Q9BQF6 whole entry): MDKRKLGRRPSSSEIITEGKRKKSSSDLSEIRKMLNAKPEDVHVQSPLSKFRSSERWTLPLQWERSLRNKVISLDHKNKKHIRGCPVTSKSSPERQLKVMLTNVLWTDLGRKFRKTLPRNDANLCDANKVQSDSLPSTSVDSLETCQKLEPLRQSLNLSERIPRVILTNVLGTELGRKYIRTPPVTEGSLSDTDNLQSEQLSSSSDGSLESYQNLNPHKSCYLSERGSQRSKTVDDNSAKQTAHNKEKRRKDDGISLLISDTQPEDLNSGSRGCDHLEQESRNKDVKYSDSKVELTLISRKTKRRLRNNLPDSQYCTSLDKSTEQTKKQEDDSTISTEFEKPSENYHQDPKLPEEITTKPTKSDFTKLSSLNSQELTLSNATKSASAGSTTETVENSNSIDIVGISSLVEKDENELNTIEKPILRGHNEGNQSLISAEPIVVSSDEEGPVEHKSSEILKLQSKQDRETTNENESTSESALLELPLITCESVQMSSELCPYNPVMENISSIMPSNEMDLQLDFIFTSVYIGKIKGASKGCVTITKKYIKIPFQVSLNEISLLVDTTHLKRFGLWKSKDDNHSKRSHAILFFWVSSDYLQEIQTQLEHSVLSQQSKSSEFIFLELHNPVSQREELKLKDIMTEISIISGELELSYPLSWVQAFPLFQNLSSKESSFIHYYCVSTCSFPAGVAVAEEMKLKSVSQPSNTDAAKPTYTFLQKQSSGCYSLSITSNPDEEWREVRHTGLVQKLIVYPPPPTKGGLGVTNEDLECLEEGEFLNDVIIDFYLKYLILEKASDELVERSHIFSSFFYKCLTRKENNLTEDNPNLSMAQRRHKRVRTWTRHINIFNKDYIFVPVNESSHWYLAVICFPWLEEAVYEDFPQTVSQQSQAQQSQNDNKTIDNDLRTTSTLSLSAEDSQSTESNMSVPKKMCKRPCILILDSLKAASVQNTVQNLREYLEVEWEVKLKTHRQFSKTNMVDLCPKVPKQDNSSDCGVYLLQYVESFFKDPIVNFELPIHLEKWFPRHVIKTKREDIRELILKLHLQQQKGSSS

[10] = molecular target: T5, Sentrin-specific protease 6 (Homo sapiens, UniProt Q9GZR1); format: functional;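 also: Luminescence-based dose-response confirmatory assay of SENP6 inhibition, following up an ultra-high-throughput screen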
T5 sequence (Q9GZR1 whole entry): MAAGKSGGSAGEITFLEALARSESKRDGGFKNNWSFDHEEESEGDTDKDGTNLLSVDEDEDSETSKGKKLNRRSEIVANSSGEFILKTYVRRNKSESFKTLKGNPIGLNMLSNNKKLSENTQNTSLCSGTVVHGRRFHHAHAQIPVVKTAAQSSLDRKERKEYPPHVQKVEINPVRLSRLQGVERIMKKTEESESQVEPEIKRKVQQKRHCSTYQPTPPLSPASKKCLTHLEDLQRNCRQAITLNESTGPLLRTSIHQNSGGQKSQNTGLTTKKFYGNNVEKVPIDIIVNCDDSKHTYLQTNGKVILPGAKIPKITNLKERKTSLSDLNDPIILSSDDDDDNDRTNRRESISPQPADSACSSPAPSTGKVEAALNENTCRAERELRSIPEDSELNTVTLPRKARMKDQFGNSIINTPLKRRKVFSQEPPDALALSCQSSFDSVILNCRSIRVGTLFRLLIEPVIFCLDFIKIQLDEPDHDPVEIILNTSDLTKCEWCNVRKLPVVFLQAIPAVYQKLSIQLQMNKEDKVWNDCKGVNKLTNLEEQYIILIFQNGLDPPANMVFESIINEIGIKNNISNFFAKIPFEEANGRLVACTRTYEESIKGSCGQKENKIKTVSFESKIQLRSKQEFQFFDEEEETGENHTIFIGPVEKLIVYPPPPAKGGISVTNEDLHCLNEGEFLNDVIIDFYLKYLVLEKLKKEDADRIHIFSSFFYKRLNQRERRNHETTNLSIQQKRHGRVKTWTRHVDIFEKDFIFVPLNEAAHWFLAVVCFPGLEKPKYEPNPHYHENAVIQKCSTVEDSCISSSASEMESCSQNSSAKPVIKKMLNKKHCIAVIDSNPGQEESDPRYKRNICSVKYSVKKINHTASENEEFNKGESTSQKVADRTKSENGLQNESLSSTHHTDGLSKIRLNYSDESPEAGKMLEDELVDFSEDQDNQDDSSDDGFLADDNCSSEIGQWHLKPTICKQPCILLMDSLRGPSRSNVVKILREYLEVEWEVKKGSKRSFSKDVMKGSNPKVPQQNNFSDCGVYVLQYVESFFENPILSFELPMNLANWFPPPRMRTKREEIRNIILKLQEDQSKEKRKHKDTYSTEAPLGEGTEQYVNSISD

HEK293 = experiment: EBV LMP1 TES2 canonical NF-kB signalling blockers – cell-based, HEK293, luciferase, cherry-pick, dose response (AID 588343); format: functional; conditions: Homo sapiens
Cytochrome P450 2C19 = Cytochrome P450 2C19 (Homo sapiens, UniProt P33261); experiment: Cytochrome panel assay with activity outcomes. Panel member name: p450-cyp2c19 Compounds with AC50 equal or less than 10 uM are considered active; format: functional; conditions: read-out: AC50
Cytochrome P450 2C19, sequence (P33261 whole entry): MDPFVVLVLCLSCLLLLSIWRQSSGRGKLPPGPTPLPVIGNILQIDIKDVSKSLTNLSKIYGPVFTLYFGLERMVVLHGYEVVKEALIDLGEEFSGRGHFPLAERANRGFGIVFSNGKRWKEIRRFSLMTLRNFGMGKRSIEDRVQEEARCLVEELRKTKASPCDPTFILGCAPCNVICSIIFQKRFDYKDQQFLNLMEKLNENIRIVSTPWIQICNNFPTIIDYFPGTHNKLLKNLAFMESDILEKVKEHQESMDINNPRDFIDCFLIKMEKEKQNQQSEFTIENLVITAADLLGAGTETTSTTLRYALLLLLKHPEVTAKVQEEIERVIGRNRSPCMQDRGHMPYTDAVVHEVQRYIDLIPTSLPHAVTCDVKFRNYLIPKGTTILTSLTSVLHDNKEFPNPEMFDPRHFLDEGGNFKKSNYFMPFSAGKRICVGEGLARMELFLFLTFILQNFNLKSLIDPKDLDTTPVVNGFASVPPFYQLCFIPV

Cytochrome P450 1A2 = molecular target: T6, Cytochrome P450 1A2 (Homo sapiens, UniProt P05177);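 also: PubChem cytochrome P450 panel assay, CYP1A2 panel member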
T6 sequence (P05177 whole entry): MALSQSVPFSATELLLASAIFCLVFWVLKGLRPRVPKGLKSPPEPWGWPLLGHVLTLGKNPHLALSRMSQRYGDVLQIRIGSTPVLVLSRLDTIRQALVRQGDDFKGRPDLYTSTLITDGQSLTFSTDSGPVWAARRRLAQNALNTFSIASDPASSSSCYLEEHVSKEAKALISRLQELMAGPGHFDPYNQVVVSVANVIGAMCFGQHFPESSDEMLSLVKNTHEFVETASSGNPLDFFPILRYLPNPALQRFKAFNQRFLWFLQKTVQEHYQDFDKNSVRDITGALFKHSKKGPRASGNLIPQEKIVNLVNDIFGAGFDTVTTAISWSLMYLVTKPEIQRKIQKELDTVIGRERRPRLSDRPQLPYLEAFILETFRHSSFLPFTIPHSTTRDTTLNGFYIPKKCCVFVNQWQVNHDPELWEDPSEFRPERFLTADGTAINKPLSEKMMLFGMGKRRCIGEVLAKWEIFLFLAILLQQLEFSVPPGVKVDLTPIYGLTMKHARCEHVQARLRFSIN

H9c2 = experiment: cells; format: functional, cell-based; conditions: Rattus norvegicus, H9c2, Myocardium;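 also: confirmatory concentration-response retest of ultra-high-throughput screening hits for modulation of myocardial damage; cell death induced by hydrogen peroxide oxidative stress; compound pretreatment for 60 min then peroxide exposure for 2 h; potency is for protecting the cells against peroxide damage rather than for killing them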
[11] = Luminescence Cell-Based Dose Confirmation HTS to Identify Inhibitors of Platelet Dense Granule Release. [Related pubchem assays: 1663 (Primary HTS), 1678 (Summary of Project)]; format: functional
BJ [12] = experiment: BJ-TERT-LT-ST fibroblast viability loss – cell-based, RAS-independent, luminescence, dose response (AID 1935); format: functional; conditions: Homo sapiens;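 also: BJ fibroblasts immortalized with TERT plus LT and ST oncogenes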
BJ [13] = experiment: cells; format: functional, cell-based; conditions: Homo sapiens
[14] = molecular target: Luciferin 4-monooxygenase (Photinus pyralis, UniProt P08659); experiment: inhibition of purified Photinus pyralis luciferase – biochemical, luminescence, dose response (AID 1891)
Luciferin 4-monooxygenase, sequence (P08659 whole entry): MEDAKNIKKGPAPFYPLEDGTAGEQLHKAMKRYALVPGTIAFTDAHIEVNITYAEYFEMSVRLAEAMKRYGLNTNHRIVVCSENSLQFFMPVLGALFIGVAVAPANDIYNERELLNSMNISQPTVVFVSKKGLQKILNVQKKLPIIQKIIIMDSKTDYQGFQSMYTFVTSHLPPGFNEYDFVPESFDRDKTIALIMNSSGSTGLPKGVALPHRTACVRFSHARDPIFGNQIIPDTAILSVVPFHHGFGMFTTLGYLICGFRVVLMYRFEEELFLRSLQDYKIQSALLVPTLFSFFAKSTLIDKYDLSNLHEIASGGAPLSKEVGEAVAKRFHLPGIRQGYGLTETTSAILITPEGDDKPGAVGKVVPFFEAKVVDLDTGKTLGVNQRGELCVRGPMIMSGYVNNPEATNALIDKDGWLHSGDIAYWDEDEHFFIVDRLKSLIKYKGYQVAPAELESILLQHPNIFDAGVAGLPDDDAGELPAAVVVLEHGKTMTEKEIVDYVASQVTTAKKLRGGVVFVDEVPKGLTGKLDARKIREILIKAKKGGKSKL

BJ [15] = experiment: BJ-TERT fibroblast viability loss – cell-based, RAS-independent, luminescence, dose response (AID 1933); format: functional; conditions: Homo sapiens
[16] = DRD fibroblast viability loss – cell-based, non-viral oncogenic, luminescence, dose response (AID 1934); format: functional; conditions: Homo sapiens

Cytochrome P450 2C9, sequence (P11712 whole entry): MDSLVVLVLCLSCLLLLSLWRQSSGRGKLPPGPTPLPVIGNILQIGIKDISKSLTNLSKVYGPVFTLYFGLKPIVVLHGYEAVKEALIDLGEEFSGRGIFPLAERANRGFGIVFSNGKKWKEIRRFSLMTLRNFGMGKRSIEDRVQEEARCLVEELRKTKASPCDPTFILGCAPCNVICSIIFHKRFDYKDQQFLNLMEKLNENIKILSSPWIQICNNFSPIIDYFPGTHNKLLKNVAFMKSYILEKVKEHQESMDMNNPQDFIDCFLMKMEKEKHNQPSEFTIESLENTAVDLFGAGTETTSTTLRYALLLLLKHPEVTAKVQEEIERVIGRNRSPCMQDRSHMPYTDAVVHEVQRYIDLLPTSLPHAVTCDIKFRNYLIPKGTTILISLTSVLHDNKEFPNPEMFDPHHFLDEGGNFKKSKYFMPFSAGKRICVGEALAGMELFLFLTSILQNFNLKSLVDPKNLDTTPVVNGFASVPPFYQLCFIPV
Cytochrome P450 3A4, sequence (P08684 whole entry): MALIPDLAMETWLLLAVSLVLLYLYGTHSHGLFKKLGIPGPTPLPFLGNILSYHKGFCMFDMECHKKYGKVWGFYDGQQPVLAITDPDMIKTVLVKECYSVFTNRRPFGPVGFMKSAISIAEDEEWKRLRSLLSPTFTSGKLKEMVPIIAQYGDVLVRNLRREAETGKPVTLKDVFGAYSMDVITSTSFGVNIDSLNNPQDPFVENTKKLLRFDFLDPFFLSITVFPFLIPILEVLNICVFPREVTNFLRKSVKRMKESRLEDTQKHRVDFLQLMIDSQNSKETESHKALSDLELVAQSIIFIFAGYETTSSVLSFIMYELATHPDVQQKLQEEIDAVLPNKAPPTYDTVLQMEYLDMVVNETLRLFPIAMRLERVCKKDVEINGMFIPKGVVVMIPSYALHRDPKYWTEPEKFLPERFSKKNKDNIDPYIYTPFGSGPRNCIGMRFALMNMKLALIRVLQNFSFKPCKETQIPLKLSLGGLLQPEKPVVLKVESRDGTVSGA

CCN(CC)CCOC(=O)c1cc(Cl)c(N)cc1OC
inconclusive: AC50 (Cytochrome P450 2C9) | AC50 (Cytochrome P450 3A4) 31.6 µM

O=C(O)c1ccc(N/N=C/c2ccc(-c3cc(Cl)ccc3Cl)o2)cc1
active: IC50 (Fatty acid synthase [1]) 3.61 µM | IC50 [2] 2.17 µM | IC50 (Fatty acid synthase [3]) 4.39 µM | EC50 [4] 0.482 µM | EC50 (Streptococcus) 2.61 µM | EC50 [6] 2.44 µM | EC50 [7] 0.384 µM | EC50 [8] 0.121 µM | EC50 (H4) < 0.1 µM
inactive: IC50 [5] > 100 µM | IC50 (Caspase-3) > 100 µM | IC50 [9] > 100 µM | IC50 [10] > 100 µM

N#Cc1c(Oc2ccc3ccccc3c2)sc(C(=O)c2ccccc2)c1N
active: AC50 (HEK293) 26.7 µM

C/C(CC(=O)NCc1ccco1)=N\NC(=O)Cc1cccc2ccccc12
inconclusive: AC50 (Cytochrome P450 2C9) | AC50 (Cytochrome P450 2C19) 25.1 µM | AC50 (Cytochrome P450 1A2) 12.6 µM

CCc1ccccc1NC(=O)c1nnn(CC(=O)Nc2cccc(C)c2C)c1N
inconclusive: AC50 (Cytochrome P450 2C9) | AC50 (Cytochrome P450 2C19) 2 µM | AC50 (Cytochrome P450 1A2) 12.6 µM | AC50 (Cytochrome P450 3A4) 7.08 µM

COc1ccc(CSc2nc(O)c3ccccc3n2)cc1F
inactive: IC50 (H9c2) > 79 µM

O=C(Nc1ccc(N2CCOCC2)cc1)c1cn2ccccc2n1
inconclusive: EC50 (BJ [12]) > 150 µM
active: AC50 (HEK293) 3.09 µM | EC50 [11] 3.25 µM | EC50 (BJ [13]) 11.1 µM | EC50 [14] 4.45 µM | EC50 (BJ [15]) 12.3 µM | EC50 [16] 12.1 µM
